Data set [1] concerns human renal cell adenocarcinoma (786-O cell line). In words: Rat 786-O xenograft: H&E and immunohistochemical evaluation (viable carcinoma size, necrosis, CD11b/CD68 infiltrate, TLS). Type of data set: in vivo, Sprague-Dawley Rag2; Il2rg null (SRG) rat. The source says: Tissue Collection: Primary Tumor (Inoculation site)—A final tumor measurement was taken prior to excision. Tumors were weighed after excision. Approximately ½ of each tumor (based on visual assessment) was flash frozen in 2-methylbutane on dry ice, the tumor piece was weighed when possible before it is flash frozen. The remaining was fixed in 10% neutral buffered formalin. Tumors were also collected from animals not reaching enrollment volume. Secondary Tumors—Any organ with visible tumors were collected and fixed in 10% neutral buffered formalin. Formalin fixed tissues were stored at room temperature. Frozen tissues were stored at −80° C. All tissue was stored for up to 3 months. Pictures of all tumors; primary and secondary if present, were taken.
Microscopic Examination: Tissues fixed with 10% NBF were embedded in paraffin. Each tumor was cut into 2-3 pieces and embedded and sectioned together.

Data set [2] relates to UM-UC-3 bladder cancer cell line. Put plainly: Human bladder cancer (UM-UC-3) mouse xenograft study: tumor volume. Type of data set: in vivo, Hsd:Athymic Nude-Foxn1nu nude mice. Particulars: Docetaxel IV 30 mg/kg, 3 cycles. The procedure:
(§1) Tumor volume was determined with calipers. […] Animals were weighed 2×/week.
At day 18 after tumor implant, when average tumor size was between 50-325 mm^3, animals were sorted into five groups with equal average tumor sizes and were treated as shown in Table 25 below.
The second treatments (2nd cycle) occurred 7 days following first treatment (1st cycle) and third treatments (3rd cycle) occurred 14 days following the first treatment. The docetaxel solution IV was administered via the tail vein.
Vehicle (Control): Diluted 1 ml of the 1% Polysorbate 80/8% Ethanol in normal saline (0.9% Sodium Chloride for Injection) reconstitution solution with 1.5 mL of normal saline (0.9% Sodium Chloride for Injection, USP). […] Vigorously hand shook the vial with inversions for 1 minute. […] Allowed the suspension to sit undisturbed for at least 5 minutes to reduce entrapped air and foam. […] Vortexed to mix.

The nature of data set [3]: UM-UC-3 mouse xenograft study: body weight and peripheral neuropathy. Particulars: Docetaxel IV 3 cycles. Type of data set: in vivo, Hsd:Athymic Nude-Foxn1nu nude mice. Here is the method: as §1
Data set [4] relates to UM-UC-3 bladder cancer cell line. Put plainly: UM-UC-3 mouse xenograft study: H&E histopathology (viable carcinoma size on slide, necrosis, TLS). Type of data set: in vivo, Hsd:Athymic Nude-Foxn1nu nude mice.
For data set [5] the test system is unchanged. Put plainly: UM-UC-3 mouse xenograft study: immunohistochemistry (F4/80, CD68 macrophage infiltrate, CD45R). The class given is in vivo, Hsd:Athymic Nude-Foxn1nu nude mice. Particulars: IV Docetaxel 3 cycles.
In data set [6] the test system is Renca tumor cells. Put plainly: Renca syngeneic xenograft study: primary tumor volume (groups 1-7). Type of data set: in vivo, female BALB/c mice. Particulars: IV docetaxel Day 1 (10 mg/kg) and Day 11 (5 mg/kg). The procedure: (§2) The schedule in Table 39 was followed.
All treatments were initiated on the same day.
(§3) Cell Injection Volume: 0.1 mL/mouse. Age at Start Date: 8 to 12 weeks. […] Body Weight: 5/2 then tiwk to end. Caliper Measurement: tiwk to end. Double caliper measurements were performed for Groups 8-10. […] The group was not euthanized and recovery was allowed.
(§4) Endpoints: Groups 1-7: Endpoint TGI. Animals were monitored as a group.

Data set [7] relates to Renca tumor cells. Put plainly: Renca syngeneic xenograft study: untreated secondary tumor growth (groups 8-10). Type of data set: in vivo, female BALB/c mice. Particulars: IV docetaxel; second Renca injection day 15. Here is the method:
as §2, §3, §4

The subject of data set [8] is immune cells in the blood. In words: Renca syngeneic xenograft study: flow cytometry of blood (CD45+, CD4+, CD8+, Treg, MDSC, M1, M2). Particulars: IV Docetaxel, individual animals. The class given is in vivo, female BALB/c mice. Here is the method:
Blood Collection: Collected full volume blood by terminal cardiac puncture under isoflurane anesthesia. Processed blood for: Whole Blood: anti-coagulant—K2EDTA, preservation—Cooled 4° C., shipping condition—4° C. (wet ice). Retained at CRL-NC for flow cytometry. See Flow panel in Table 40 below.
(§5) Peripheral blood and tumor tissue were collected for analysis via flow cytometry. Cell types analyzed included T-Cells: CD4+, CD8+ (Tumor Suppression); Treg (Tumor Promotion); M1 Macrophages (Tumor Suppression); M2 Macrophages (Tumor Promotion); and M2 Macrophages (Tumor Promotion).

In data set [9] the test system is immune cells in tumor tissue. Put plainly: Renca syngeneic xenograft study: flow cytometry of tumor tissue. As to conditions: IV docetaxel, individual animal. The class given is in vivo, female BALB/c mice. Here is the method:
Organ Collection: Tumor (divide into 2 parts). […] Sent to laboratory for IHC staining. Part 2: preservation—processed to single cell suspension, shipping condition—4° C. (wet ice). Retained at CRL-NC for flow cytometry. See Flow panel in Table 40 below. Tumor preservation for early euthanasia in Groups 2-10: Excised tumor and surrounding area from the mammary fat pad area (cranial) to just past tumor (caudal). The region included the inguinal lymph node. Sectioned this sample every 4 mm from the cranial to caudal end and enclosed in separate cassettes labeled in order.
as §5

The mark [10] stands for this setting: IV Docetaxel 3 cycles, 2 animals.

SMILES strings stand for the structures. Where “and” joins values, the source holds several entries; their conditions need not be identical. Equal entries are not always repeated. Marks after values point to notes of the source that are not given here.

In the case of `CC(=O)O[C@@]12CO[C@@H]1C[C@H](O)[C@@]1(C)C(=O)[C@H](O)C3=C(C)[C@@H](OC(=O)[C@H](O)[C@@H](NC(=O)OC(C)(C)C)c4ccccc4)C[C@@](O)([C@@H](OC(=O)c4ccccc4)[C@H]21)C3(C)C` [Doce], the “Number of animals with <5% of tissue showing necrosis” value in data set [1] (IV Doce, 2 animals) was 2. Besides, the “Number of animals with Mild lymphohistiocytic infiltrate density” value in data set [1] (IV Doce, 2 animals, H/E and CD11b staining, semi quantitative) is reported as 2.

As for `CC(=O)O[C@@]12CO[C@@H]1C[C@H](O)[C@@]1(C)C(=O)[C@H](O)C3=C(C)[C@@H](OC(=O)[C@H](O)[C@@H](NC(=O)OC(C)(C)C)c4ccccc4)C[C@@](O)([C@@H](OC(=O)c4ccccc4)[C@H]21)C3(C)C` [Docetaxel, docetaxel], in data set [2], the “efficacy in relation to initial tumor size” value is on record as “somewhat effective at treating small tumors, but not very effective in treating large tumors” and the “tumor volumes over the study (61 days), after an initial decrease” value is listed as “subsequently increased”. In [3], the “initial animal weight loss compared with nDoce IT 1, 2, 3 cycles” value was “generally greater” and the “peripheral neuropathy compared with nDoce IT 3 cycles” value is listed as “greater signs of peripheral neuropathy”. Besides, the “General histological observations (H&E)” value in data set [4] (Docetaxel Solution IV 3 cycles) is “many viable appearing tumor masses with some macrophage and occasional lymphocytic response along with some tumor necrosis”. Besides, in data set [4] (setting [10]), the “Maximum size of viable invasive carcinoma on the slide >10 mm (animals)” value is 2*, the “Number of animals with 11-50% of tumor showing necrosis” value is on record as 1 and the “Number of animals with 50-90% of tumor showing necrosis” value is given as 1. Moreover, the “Maximum tumor size on slide (mm)” value in data set [4] (IV Docetaxel 3 cycles, individual animals B1, B3) is 15 mm and 11 mm. Besides, the “maximum dimension of tumor mass on the slide, individual cases” value in [4] (Intravenous Docetaxel 3 cycles, 2 cases) was 11 mm and 15 mm. Further, in [4] (Intravenous Docetaxel 3 cycles, cases B1, B3), the “geographic tumor cell necrosis, share of the tumor area, individual cases” value is 11-50% and 50-90%. Besides, the “F4/80 immunohistochemistry observation (FIG. 87)” value in [5] is “Very little tumor cell destruction and few scattered mononuclear immune cells among vast number of viable tumor cells”. For the same compound, in data set [5] (2 animals, H&E and CD68), the “Macrophage infiltrate density: Mild (animals)” value was 2. The “histology compared with the vehicle control (FIG. 93)” value in [1] (Docetaxel (IV) 3 cycles, female rat) is on record as “no difference”. Also, the “Number of animals with residual viable carcinoma >10 mm” value in [1] (IV docetaxel, 2 animals, maximum dimension on slide) came to 2. In addition, in data set [1] (both IV docetaxel animals (3 cycles)), the “residual viable carcinoma nodules, size on the slide” value is reported as “greater than 10 mm”. For the same compound, the “tumor volume compared to vehicle” value with Renca tumor cells [6] is reported as “No difference in tumor volume”. Further, in the data set on Renca tumor cells [7], the “growth rate of the secondary Renca tumors” value is “did not reduce the growth rate of the secondary Renca tumors”. In addition, in [8], the “CD45 (% of Live)” value is given as 97 % of Live; the “CD45 Count” value is 1200000; the “MDSC Count” value is 1000000; the “Treg Count” value is 1300 and 870. In [9], the “CD8 (% of CD45)” value is 0.75% and 0.5% and 0.28% and 0.31% (2×) and 0.061% and 0.32% and 0.45% and 0.81% and 0.33%; the “CD8 Count” value is 33 and 40 and 26 and 9 and 36 and 270; the “CD45 (% of Live)” value amounted to 73%; the “Conv CD4 (% of CD45)” value is 0.44% and 0.16% and 0.58% and 0.62% and 0.59%. In data set [9], the “Conv CD4 Count” value is 54 and 93 and 140 and 23 and 50 and 670; the “M1 Mac Count” value was 460 and 700; the “M2 Mac (% of CD45)” value was found to be 28%; the “MBSC (% of CD45)” value is 25.1% and 32.8% and 42.5% and 44% and 83.3% and 20% and 70.4% and 37.3% and 10.4%. For the same compound, in data set [9], the “Treg (% of CD45)” value was 0.55% and 0.32% and 0.62% and 0.16% and 0.54% and 0.21% and 0.42% and 0.6%; the “Treg Count” value is 69 and 44 and 30 and 23 and 17 and 520.

The values above are taken from US20210214683A1, “METHODS FOR ISOLATING TUMOR-SPECIFIC IMMUNE CELLS FROM A SUBJECT FOR ADOPTIVE CELL THERAPY AND CANCER VACCINES” (CRITITECH, INC., priority 2018, published 2021).
